# Assay results published in patent publication US10844077B2, “Thiazolyl-containing compounds for treating proliferative diseases” (Dana-Farber Cancer Institute, Inc., priority 2014, dated 2020).
# Values joined by “and” are separate entries in the source; they are usually repeats but may differ in a detail not shown here. Identical values can stand only once. Like-named read-outs stand apart in the source and are kept apart here.
# Tests used:
# Format in all cases: cell-based
# [1] = biological target: T1, kinases in BCWM.1 cells (Homo sapiens, UniProt Q14289); test: KINATIV assay of compounds I-3 and I-9, lysate directly labeled with ATP-biotin probe (no GF); conditions: PYK2; Activation Loop; 1 μM, 90 min; no GF
# Method: (§1) The cells were harvested and lysed. […] Bound kinases were identified and quantitated by ACTIVX as described in Patricelli et al., Biochemistry, 2007, 46(2): 350-358. The compounds were tested in duplicates against duplicate or quadruplicate control samples.
# [2] = biological target: kinases in BCWM.1 cells (Homo sapiens, UniProt Q8TD19); test: as above; conditions: NEK9; Lys2; 1 μM, 90 min; no GF
# Method: as §1
# [3] = biological target: kinases in BCWM.1 cells (Homo sapiens, UniProt O95747); test: as above; conditions: OSR1; Lys2; 1 μM, 90 min; no GF
# Method: as §1
# [4] = biological target: kinases in BCWM.1 cells (Homo sapiens, UniProt P19525); test: as above; conditions: PKR; Lys2; 1 μM, 90 min; no GF
# Method: as §1
# [5] = biological target: kinases in BCWM.1 cells (Homo sapiens, UniProt Q9NZJ5); test: as above; conditions: PEK; Lys2; 1 μM, 90 min; no GF
# Method: as §1
# [6] = biological target: T2, kinases in BCWM.1 cells (Homo sapiens, UniProt Q9UL54); test: as above; conditions: TAO2; Lys2; 1 μM, 90 min; no GF
# Method: as §1
# [7] = biological target: kinases in BCWM.1 cells (Homo sapiens, UniProt Q9Y572); conditions: RIPK3; Lys2; 1 μM, 90 min; GF
# Method: as §1
# [8] = biological target: T1, kinases in BCWM.1 cells; conditions: PYK2; Activation Loop; 1 μM, 90 min; GF
# Method: as §1
# [9] = biological target: kinases in BCWM.1 cells (Homo sapiens, UniProt P15735); conditions: PHKg2; Lys1; 1 μM, 90 min; GF
# Method: as §1
# [10] = system: kinases in BCWM.1 cells; conditions: 1 μM, GF
# Method: as §1
# [11] = biological target: kinases in BCWM.1 cells (Homo sapiens, UniProt O95819)
# Method: as §1
# [12] = biological target: kinases in BCWM.1 cells (Homo sapiens, UniProt P42338); conditions: PIK3CB; ATP; 1 μM, 90 min; GF
# Method: as §1
# [13] = biological target: kinases in BCWM.1 cells (Homo sapiens, UniProt Q16512); conditions: PKN1; Lys1; 1 μM, 90 min; GF
# Method: as §1
# [14] = biological target: kinases in BCWM.1 cells (Homo sapiens, UniProt P30291); conditions: Wee1; Lys2; 1 μM, 90 min; GF
# Method: as §1
# [15] = biological target: kinases in BCWM.1 cells (Homo sapiens, UniProt Q9BZL6); conditions: PKD2; Lys1; 1 μM, 90 min; GF
# Method: as §1
# [16] = biological target: kinases in BCWM.1 cells (Homo sapiens, UniProt P21127); conditions: PITSLRE; Lys2; 1 μM, 90 min; GF
# Method: as §1
# [17] = biological target: kinases in BCWM.1 cells (Homo sapiens, UniProt Q9UBF8); conditions: PI4KB; ATP; 1 μM, 90 min; GF
# Method: as §1
# [18] = biological target: kinases in BCWM.1 cells (Homo sapiens, UniProt O00329); conditions: PIK3CD; ATP; 1 μM, 90 min; GF
# Method: as §1
# [19] = biological target: kinases in BCWM.1 cells (Homo sapiens, UniProt Q9Y2H1); conditions: NDR2; Lys2; 1 μM, 90 min; GF
# Method: as §1
# [20] = biological target: kinases in BCWM.1 cells (Homo sapiens, UniProt P48426); conditions: PIP4K2A; ATP; 1 μM, 90 min; GF
# Method: as §1
# [21] = biological target: kinases in BCWM.1 cells (Homo sapiens, UniProt P48736); conditions: PIK3CG; ATP; 1 μM, 90 min; GF
# Method: as §1
# [22] = biological target: kinases in BCWM.1 cells (Homo sapiens, UniProt P23443); conditions: p70S6K; Lys2; 1 μM, 90 min; GF
# Method: as §1
# [23] = biological target: T2, kinases in BCWM.1 cells; conditions: TAO2; Lys2; 1 μM, 90 min; GF
# Method: as §1
# [24] = biological target: kinases in BCWM.1 cells (Homo sapiens, UniProt Q15418); conditions: Lys2, 1 μM, 90 min, GF
# Method: as §1
# [25] = biological target: kinases in BCWM.1 cells (Homo sapiens, UniProt Q9UBE8); conditions: NLK; Lys2; 1 μM, 90 min; GF
# Method: as §1
# [26] = biological target: kinases in BCWM.1 cells (Homo sapiens, UniProt Q96PY6); conditions: NEK1; Lys2; 1 μM, 90 min; GF
# Method: as §1
# Sequence of kinases in BCWM.1 cells (Homo sapiens, UniProt Q8TD19) (Q8TD19 2-979 limits assumed): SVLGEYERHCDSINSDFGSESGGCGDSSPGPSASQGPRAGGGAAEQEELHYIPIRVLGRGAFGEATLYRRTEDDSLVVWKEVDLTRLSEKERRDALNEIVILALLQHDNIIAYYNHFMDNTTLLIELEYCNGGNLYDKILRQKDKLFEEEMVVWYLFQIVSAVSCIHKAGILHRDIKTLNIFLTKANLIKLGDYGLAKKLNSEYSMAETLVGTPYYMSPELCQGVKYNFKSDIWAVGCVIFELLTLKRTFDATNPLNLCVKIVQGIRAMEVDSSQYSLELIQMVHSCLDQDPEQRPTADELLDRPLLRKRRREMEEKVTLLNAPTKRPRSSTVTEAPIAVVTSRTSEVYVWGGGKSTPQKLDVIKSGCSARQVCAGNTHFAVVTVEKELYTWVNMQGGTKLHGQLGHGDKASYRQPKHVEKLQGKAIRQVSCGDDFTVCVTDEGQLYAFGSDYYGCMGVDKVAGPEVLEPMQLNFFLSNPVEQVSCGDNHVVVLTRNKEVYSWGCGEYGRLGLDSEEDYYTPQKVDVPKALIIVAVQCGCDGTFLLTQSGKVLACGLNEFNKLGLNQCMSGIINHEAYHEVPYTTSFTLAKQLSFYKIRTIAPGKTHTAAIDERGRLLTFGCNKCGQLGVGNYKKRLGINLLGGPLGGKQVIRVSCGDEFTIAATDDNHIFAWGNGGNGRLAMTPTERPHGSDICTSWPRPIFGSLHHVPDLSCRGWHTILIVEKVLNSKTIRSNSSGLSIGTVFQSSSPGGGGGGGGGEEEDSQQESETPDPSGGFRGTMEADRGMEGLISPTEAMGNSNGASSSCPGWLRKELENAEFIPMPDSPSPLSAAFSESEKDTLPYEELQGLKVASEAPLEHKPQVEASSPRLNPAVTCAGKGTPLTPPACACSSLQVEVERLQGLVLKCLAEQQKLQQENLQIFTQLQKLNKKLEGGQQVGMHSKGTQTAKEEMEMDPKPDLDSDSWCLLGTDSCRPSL
# Sequence of kinases in BCWM.1 cells (Homo sapiens, UniProt O95819) (O95819 2-1239 limits assumed): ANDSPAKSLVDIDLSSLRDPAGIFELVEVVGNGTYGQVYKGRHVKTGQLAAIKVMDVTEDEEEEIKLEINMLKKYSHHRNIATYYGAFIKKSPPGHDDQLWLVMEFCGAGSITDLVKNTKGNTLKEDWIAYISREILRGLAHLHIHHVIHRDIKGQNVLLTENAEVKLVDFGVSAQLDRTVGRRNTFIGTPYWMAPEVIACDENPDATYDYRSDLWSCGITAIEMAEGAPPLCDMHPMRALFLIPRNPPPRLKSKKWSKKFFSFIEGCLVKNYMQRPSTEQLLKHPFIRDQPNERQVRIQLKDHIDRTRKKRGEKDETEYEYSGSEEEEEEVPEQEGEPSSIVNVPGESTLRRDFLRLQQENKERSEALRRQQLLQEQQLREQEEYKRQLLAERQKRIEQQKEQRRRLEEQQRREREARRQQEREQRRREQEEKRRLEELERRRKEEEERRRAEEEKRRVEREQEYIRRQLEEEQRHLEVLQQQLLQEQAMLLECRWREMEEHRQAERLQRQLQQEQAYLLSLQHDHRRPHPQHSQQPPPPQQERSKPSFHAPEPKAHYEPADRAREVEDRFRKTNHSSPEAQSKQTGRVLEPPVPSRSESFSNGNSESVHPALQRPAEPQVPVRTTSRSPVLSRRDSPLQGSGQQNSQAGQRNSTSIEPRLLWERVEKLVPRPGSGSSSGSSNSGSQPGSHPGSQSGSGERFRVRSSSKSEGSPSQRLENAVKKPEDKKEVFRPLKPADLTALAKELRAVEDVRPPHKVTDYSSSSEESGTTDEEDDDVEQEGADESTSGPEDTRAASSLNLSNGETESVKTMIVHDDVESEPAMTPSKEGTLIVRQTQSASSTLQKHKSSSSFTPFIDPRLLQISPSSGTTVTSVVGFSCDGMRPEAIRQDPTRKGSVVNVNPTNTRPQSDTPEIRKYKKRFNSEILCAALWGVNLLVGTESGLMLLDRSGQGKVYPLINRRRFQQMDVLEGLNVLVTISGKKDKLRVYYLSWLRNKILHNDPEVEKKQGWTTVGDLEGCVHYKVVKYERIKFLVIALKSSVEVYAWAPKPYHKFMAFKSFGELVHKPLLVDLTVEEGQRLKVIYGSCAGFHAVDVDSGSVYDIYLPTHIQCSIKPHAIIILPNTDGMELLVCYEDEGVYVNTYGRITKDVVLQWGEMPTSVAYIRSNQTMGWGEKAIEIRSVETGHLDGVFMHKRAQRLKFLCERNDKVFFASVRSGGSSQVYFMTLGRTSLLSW
# Sequence of kinases in BCWM.1 cells (Homo sapiens, UniProt P48426) (P48426 2-406 limits assumed): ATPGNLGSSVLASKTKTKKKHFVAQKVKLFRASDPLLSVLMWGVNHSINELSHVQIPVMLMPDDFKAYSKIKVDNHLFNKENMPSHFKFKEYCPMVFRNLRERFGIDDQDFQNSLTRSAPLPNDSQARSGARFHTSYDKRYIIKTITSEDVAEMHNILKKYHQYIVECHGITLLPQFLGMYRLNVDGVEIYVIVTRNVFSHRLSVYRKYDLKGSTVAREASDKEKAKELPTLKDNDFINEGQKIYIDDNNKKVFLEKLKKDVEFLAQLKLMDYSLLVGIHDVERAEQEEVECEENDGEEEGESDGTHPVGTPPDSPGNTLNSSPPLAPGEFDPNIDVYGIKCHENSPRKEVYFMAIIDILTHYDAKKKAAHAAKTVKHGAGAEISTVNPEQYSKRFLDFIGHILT
# Sequence of kinases in BCWM.1 cells (Homo sapiens, UniProt Q16512) (Q16512 2-942 limits assumed): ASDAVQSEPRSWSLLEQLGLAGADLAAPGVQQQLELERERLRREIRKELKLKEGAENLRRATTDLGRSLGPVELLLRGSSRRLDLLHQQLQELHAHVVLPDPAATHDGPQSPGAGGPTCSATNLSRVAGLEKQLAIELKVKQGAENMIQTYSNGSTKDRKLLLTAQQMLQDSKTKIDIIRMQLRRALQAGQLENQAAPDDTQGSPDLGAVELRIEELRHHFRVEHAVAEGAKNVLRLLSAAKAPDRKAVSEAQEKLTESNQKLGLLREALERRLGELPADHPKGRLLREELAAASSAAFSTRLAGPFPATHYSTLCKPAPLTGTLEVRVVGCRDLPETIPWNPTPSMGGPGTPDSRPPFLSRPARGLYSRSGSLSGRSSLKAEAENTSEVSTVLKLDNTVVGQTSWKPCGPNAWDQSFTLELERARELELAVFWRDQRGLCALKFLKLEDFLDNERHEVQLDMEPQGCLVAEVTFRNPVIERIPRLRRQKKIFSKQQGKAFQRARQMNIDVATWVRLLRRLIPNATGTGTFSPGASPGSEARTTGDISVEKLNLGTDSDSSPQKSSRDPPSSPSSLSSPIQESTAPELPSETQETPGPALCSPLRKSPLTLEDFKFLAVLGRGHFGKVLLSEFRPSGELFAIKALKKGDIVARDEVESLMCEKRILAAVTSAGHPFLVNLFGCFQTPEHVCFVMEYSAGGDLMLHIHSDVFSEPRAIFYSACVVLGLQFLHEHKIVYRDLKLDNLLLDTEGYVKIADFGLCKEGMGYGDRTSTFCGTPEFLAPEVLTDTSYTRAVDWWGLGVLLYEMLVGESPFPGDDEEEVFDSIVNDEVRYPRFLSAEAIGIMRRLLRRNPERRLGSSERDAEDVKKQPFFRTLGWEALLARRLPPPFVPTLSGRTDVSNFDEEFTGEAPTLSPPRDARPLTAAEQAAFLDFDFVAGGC
# Sequence of kinases in BCWM.1 cells (Homo sapiens, UniProt Q9Y2H1) (Q9Y2H1 2-464 limits assumed): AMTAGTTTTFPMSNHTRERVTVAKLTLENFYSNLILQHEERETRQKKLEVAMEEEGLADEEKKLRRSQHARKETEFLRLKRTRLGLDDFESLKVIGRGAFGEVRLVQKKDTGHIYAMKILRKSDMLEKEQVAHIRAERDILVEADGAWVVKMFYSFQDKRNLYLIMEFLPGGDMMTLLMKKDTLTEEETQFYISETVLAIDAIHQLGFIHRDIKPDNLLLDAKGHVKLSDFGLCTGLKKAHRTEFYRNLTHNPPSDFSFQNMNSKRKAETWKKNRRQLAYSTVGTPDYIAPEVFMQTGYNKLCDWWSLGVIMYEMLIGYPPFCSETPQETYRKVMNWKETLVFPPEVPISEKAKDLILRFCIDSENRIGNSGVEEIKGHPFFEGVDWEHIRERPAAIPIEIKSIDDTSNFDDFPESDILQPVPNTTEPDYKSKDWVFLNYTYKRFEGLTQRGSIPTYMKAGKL
# Sequence of kinases in BCWM.1 cells (Homo sapiens, UniProt O95747) (O95747 2-527 limits assumed): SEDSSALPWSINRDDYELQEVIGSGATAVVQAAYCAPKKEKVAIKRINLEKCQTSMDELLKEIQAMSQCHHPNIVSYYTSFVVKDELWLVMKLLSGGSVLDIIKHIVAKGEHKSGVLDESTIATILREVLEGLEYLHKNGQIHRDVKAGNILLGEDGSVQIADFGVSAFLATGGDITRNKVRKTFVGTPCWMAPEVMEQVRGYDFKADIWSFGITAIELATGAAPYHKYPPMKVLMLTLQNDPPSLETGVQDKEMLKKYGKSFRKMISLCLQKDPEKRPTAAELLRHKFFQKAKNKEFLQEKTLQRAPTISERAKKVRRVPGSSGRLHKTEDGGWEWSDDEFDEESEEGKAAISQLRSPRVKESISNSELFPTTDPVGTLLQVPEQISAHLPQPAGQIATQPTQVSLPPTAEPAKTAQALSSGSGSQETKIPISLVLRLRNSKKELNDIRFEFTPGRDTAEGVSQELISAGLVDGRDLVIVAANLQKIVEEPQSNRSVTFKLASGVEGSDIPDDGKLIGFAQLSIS
smiles,measurement,setting,value
CCC(=O)N1CC[C@H](Nc2nccc(Nc3ncc(C(=O)Nc4c(C)cccc4C)s3)n2)C1 [Example I-9],% change of MS signal compared to control sample,[1],5.1%
same,% change of MS signal compared to control sample,[2],−21.3%
same,% change of MS signal compared to control sample,[3],2.7%
same,% change of MS signal compared to control sample,[4],−8%
same,% change of MS signal compared to control sample,[5],22.1%
same,% change of MS signal compared to control sample,[6],4.3%
same,% change of MS signal compared to control sample,[7],−27%
same,% change of MS signal compared to control sample,[8],−0.9%
same,% change of MS signal compared to control sample,[9],5.3%
same,% change of MS signal compared to control sample,"[10]; ABL, ARG, Activation Loop",46.1% and 75.4%
same,% change of MS signal compared to control sample,"[10]; ABL, ARG, Lys1",40.6% and 71.8%
same,% change of MS signal compared to control sample,"[10]; AurA, AurB, AurC, ATP Loop",5.5% and 2.8%
same,% change of MS signal compared to control sample,"[10]; CK1g1, CK1g2, CK1g3, ATP Loop",−8.2% and −4.7%
same,% change of MS signal compared to control sample,"[10]; FYN, SRC, YES, Activation Loop",72.5% and 80.4%
same,% change of MS signal compared to control sample,"[10]; JNK1, JNK2, JNK3, Lys2",−7% and 0.5%
same,% change of MS signal compared to control sample,"[10]; KSR1, KSR2, Activation Loop",−14.6% and −16.2%
same,% change of MS signal compared to control sample,"[10]; MAP2K1, MAP2K2, Lys1",−9.2% and −1.1%
same,% change of MS signal compared to control sample,"[10]; MAP2K1, MAP2K2, Lys2",−6.4% and −4.5%
same,% change of MS signal compared to control sample,"[10]; MAP3K2, MAP3K3, Lys2",0.7% and 6.8%
same,% change of MS signal compared to control sample,"[10]; MARK3, MARK4, Lys1",−10.4% and −7.1%
same,% change of MS signal compared to control sample,"[10]; MER, TYRO3, Activation Loop",−14.7%
same,% change of MS signal compared to control sample,"[10]; MST4, YSK1, Lys2, 90 min",15.2%
same,% change of MS signal compared to control sample,"[10]; NEK6, NEK7, Lys2, 90 min",−0.8%
same,% change of MS signal compared to control sample,"[10]; PCTAIRE2, PCTAIRE3, Lys1, 90 min",−0.8%
same,% change of MS signal compared to control sample,"[10]; PI4KA, PI4KAP2, ATP, 90 min",3.6%
same,% change of MS signal compared to control sample,"[10]; PKACa, PKCb, Lys2, 90 min",25.3%
same,% change of MS signal compared to control sample,"[10]; ROCK1, ROCK2, Lys2, 90 min",1.7%
same,% change of MS signal compared to control sample,"[10]; RSK1 domain1, RSK2 domain1, RSK3 domain1, Lys2, 90 min",−6.1%
same,% change of MS signal compared to control sample,"[10]; SRPK1, SRPK2, Lys1, 90 min",2.5%
same,% change of MS signal compared to control sample,"[10]; TAO1, TAO3, Lys2, 90 min",9.3%
same,% change of MS signal compared to control sample,"[10]; Wnk1, Wnk2, Wnk3, Lys2, 90 min",4.4%
same,% change of MS signal compared to control sample,"[10]; Wnk1, Wnk2, ATP Loop, 90 min",7.6%
same,% change of MS signal compared to control sample,"[10]; ZC1/HGK, ZC2/TNIK, ZC3/MINK, Lys2, 90 min",1.8%
same,% change of MS signal compared to control sample,"[10]; p38d, p38g, Lys2, 90 min",−27.1%
same,% change of MS signal compared to control sample,[11],15.3%
same,% change of MS signal compared to control sample,[12],18.5%
same,% change of MS signal compared to control sample,[13],−0.9%
same,% change of MS signal compared to control sample,[14],8.6%
same,% change of MS signal compared to control sample,[15],−4.2%
same,% change of MS signal compared to control sample,[16],−0.6%
same,% change of MS signal compared to control sample,[17],−3.1%
same,% change of MS signal compared to control sample,[18],−9.7%
same,% change of MS signal compared to control sample,[19],2.9%
same,% change of MS signal compared to control sample,[20],−8.3%
same,% change of MS signal compared to control sample,[21],−9.6%
same,% change of MS signal compared to control sample,[22],−8.6%
same,% change of MS signal compared to control sample,[23],11.5%
same,% change of MS signal compared to control sample,[24]; RSK1 domain1,−5.1%
same,% change of MS signal compared to control sample,[24]; RSK1 domain2,−4.1%
same,% change of MS signal compared to control sample,[25],51.8%
same,% change of MS signal compared to control sample,[26],4.6%
